Reference: patent US20240238242A1, “EGCG buccal tablet and use thereof” (priority 2023, published 2024)

System: Influenza B virus (B/Lee)
Assay: Inactivation efficiency against influenza B virus B/Lee strain (residual TCID50 on MDCK cells)
Format: cell-based
Settings: for average inactivation efficiency against virus: B/Lee virus, two experiments

O=C(O[C@@H]1Cc2c(O)cc(O)cc2O[C@@H]1c1cc(O)c(O)c(O)c1)c1cc(O)c(O)c(O)c1 [EGCG, Epigallocatechin gallate]
CPE test (virus replication in the cell wells) (0.2 mM EGCG + B/Lee virus, 1 minute, first experiment, dilution factor 10^1, wells 1-10): +
CPE test (virus replication in the cell wells) (0.2 mM EGCG + B/Lee virus, 1 minute, first experiment, dilution factor 10^2, wells 1-10): +
CPE test (virus replication in the cell wells) (0.2 mM EGCG + B/Lee virus, 1 minute, first experiment, dilution factor 10^3, wells 1-10): +
CPE test (virus replication in the cell wells) (0.2 mM EGCG + B/Lee virus, 1 minute, first experiment, dilution factor 10^4, wells 1-10): +
CPE test (virus replication in the cell wells) (0.2 mM EGCG + B/Lee virus, 1 minute, first experiment, dilution factor 10^5, wells 1-10): − and +
CPE test (virus replication in the cell wells) (0.2 mM EGCG + B/Lee virus, 1 minute, first experiment, dilution factor 10^6, wells 1-10): − and +
CPE test (virus replication in the cell wells) (0.2 mM EGCG + B/Lee virus, 1 minute, first experiment, dilution factor 10^7, wells 1-10): −
CPE test (virus replication in the cell wells) (0.2 mM EGCG + B/Lee virus, 1 minute, first experiment, dilution factor 10^8, wells 1-10): −
CPE test (virus replication in the cell wells) (0.2 mM EGCG + B/Lee virus, 1 minute, second experiment, dilution factor 10^1, wells 1-10): +
CPE test (virus replication in the cell wells) (0.2 mM EGCG + B/Lee virus, 1 minute, second experiment, dilution factor 10^2, wells 1-10): +
CPE test (virus replication in the cell wells) (0.2 mM EGCG + B/Lee virus, 1 minute, second experiment, dilution factor 10^3, wells 1-10): +
CPE test (virus replication in the cell wells) (0.2 mM EGCG + B/Lee virus, 1 minute, second experiment, dilution factor 10^4, wells 1-10): +
CPE test (virus replication in the cell wells) (0.2 mM EGCG + B/Lee virus, 1 minute, second experiment, dilution factor 10^5, wells 1-10): +
CPE test (virus replication in the cell wells) (0.2 mM EGCG + B/Lee virus, 1 minute, second experiment, dilution factor 10^6, wells 1-10): − and +
CPE test (virus replication in the cell wells) (0.2 mM EGCG + B/Lee virus, 1 minute, second experiment, dilution factor 10^7, wells 1-10): −
CPE test (virus replication in the cell wells) (0.2 mM EGCG + B/Lee virus, 1 minute, second experiment, dilution factor 10^8, wells 1-10): −
average inactivation efficiency against virus (0.2 mM EGCG, 1 minute): 18.45%
CPE test (virus replication in the cell wells) (1 mM EGCG + B/Lee virus, 1 minute, first experiment, dilution factor 10^3, wells 1-10): +
CPE test (virus replication in the cell wells) (1 mM EGCG + B/Lee virus, 1 minute, first experiment, dilution factor 10^4, wells 1-10): +
CPE test (virus replication in the cell wells) (1 mM EGCG + B/Lee virus, 1 minute, first experiment, dilution factor 10^5, wells 1-10): +
CPE test (virus replication in the cell wells) (1 mM EGCG + B/Lee virus, 1 minute, first experiment, dilution factor 10^6, wells 1-10): −
CPE test (virus replication in the cell wells) (1 mM EGCG + B/Lee virus, 1 minute, first experiment, dilution factor 10^7, wells 1-10): −
CPE test (virus replication in the cell wells) (1 mM EGCG + B/Lee virus, 1 minute, first experiment, dilution factor 10^8, wells 1-10): −
CPE test (virus replication in the cell wells) (1 mM EGCG + B/Lee virus, 1 minute, second experiment, dilution factor 10^3, wells 1-10): +
CPE test (virus replication in the cell wells) (1 mM EGCG + B/Lee virus, 1 minute, second experiment, dilution factor 10^4, wells 1-10): +
CPE test (virus replication in the cell wells) (1 mM EGCG + B/Lee virus, 1 minute, second experiment, dilution factor 10^5, wells 1-10): +
CPE test (virus replication in the cell wells) (1 mM EGCG + B/Lee virus, 1 minute, second experiment, dilution factor 10^6, wells 1-10): − and +
CPE test (virus replication in the cell wells) (1 mM EGCG + B/Lee virus, 1 minute, second experiment, dilution factor 10^7, wells 1-10): −
CPE test (virus replication in the cell wells) (1 mM EGCG + B/Lee virus, 1 minute, second experiment, dilution factor 10^8, wells 1-10): −
CPE test (virus replication in the cell wells) (1 mM EGCG + B/Lee virus, 5 minute, first experiment, dilution factor 10^2, wells 1-10): +
CPE test (virus replication in the cell wells) (1 mM EGCG + B/Lee virus, 5 minute, first experiment, dilution factor 10^3, wells 1-10): +
CPE test (virus replication in the cell wells) (1 mM EGCG + B/Lee virus, 5 minute, first experiment, dilution factor 10^4, wells 1-10): +
CPE test (virus replication in the cell wells) (1 mM EGCG + B/Lee virus, 5 minute, first experiment, dilution factor 10^5, wells 1-10): +
CPE test (virus replication in the cell wells) (1 mM EGCG + B/Lee virus, 5 minute, first experiment, dilution factor 10^6, wells 1-10): −
CPE test (virus replication in the cell wells) (1 mM EGCG + B/Lee virus, 5 minute, first experiment, dilution factor 10^7, wells 1-10): −
CPE test (virus replication in the cell wells) (1 mM EGCG + B/Lee virus, 5 minute, first experiment, dilution factor 10^8, wells 1-10): −
CPE test per cell well (1 mM EGCG + B/Lee virus, 5 minute, second experiment, dilution factor 10^1, wells 1-10): +
CPE test per cell well (1 mM EGCG + B/Lee virus, 5 minute, second experiment, dilution factor 10^2, wells 1-10): +
CPE test per cell well (1 mM EGCG + B/Lee virus, 5 minute, second experiment, dilution factor 10^3, wells 1-10): +
CPE test per cell well (1 mM EGCG + B/Lee virus, 5 minute, second experiment, dilution factor 10^4, wells 1-10): +
CPE test per cell well (1 mM EGCG + B/Lee virus, 5 minute, second experiment, dilution factor 10^5, wells 1-10): + and −
CPE test per cell well (1 mM EGCG + B/Lee virus, 5 minute, second experiment, dilution factor 10^6, wells 1-10): −
CPE test per cell well (1 mM EGCG + B/Lee virus, 5 minute, second experiment, dilution factor 10^7, wells 1-10): −
CPE test per cell well (1 mM EGCG + B/Lee virus, 5 minute, second experiment, dilution factor 10^8, wells 1-10): −
average inactivation efficiency against virus (1 mM EGCG, 1 minute): 28.74%
average inactivation efficiency against virus (1 mM EGCG, 5 minutes): 18.45%
CPE test (virus replication in the cell wells) (5 mM EGCG + B/Lee virus, 1 minute, first experiment, dilution factor 10^4, wells 1-10): +
CPE test (virus replication in the cell wells) (5 mM EGCG + B/Lee virus, 1 minute, first experiment, dilution factor 10^5, wells 1-10): +
CPE test (virus replication in the cell wells) (5 mM EGCG + B/Lee virus, 1 minute, first experiment, dilution factor 10^6, wells 1-10): −
CPE test (virus replication in the cell wells) (5 mM EGCG + B/Lee virus, 1 minute, first experiment, dilution factor 10^7, wells 1-10): −
CPE test (virus replication in the cell wells) (5 mM EGCG + B/Lee virus, 1 minute, first experiment, dilution factor 10^8, wells 1-10): −
CPE test (virus replication in the cell wells) (5 mM EGCG + B/Lee virus, 1 minute, second experiment, dilution factor 10^4, wells 1-10): +
CPE test (virus replication in the cell wells) (5 mM EGCG + B/Lee virus, 1 minute, second experiment, dilution factor 10^5, wells 1-10): − and +
CPE test (virus replication in the cell wells) (5 mM EGCG + B/Lee virus, 1 minute, second experiment, dilution factor 10^6, wells 1-10): −
CPE test (virus replication in the cell wells) (5 mM EGCG + B/Lee virus, 1 minute, second experiment, dilution factor 10^7, wells 1-10): −
CPE test (virus replication in the cell wells) (5 mM EGCG + B/Lee virus, 1 minute, second experiment, dilution factor 10^8, wells 1-10): −
CPE test (virus replication in the cell wells) (5 mM EGCG + B/Lee virus, 5 minute, first experiment, dilution factor 10^4, wells 1-10): + and −
CPE test (virus replication in the cell wells) (5 mM EGCG + B/Lee virus, 5 minute, first experiment, dilution factor 10^5, wells 1-10): + and −
CPE test (virus replication in the cell wells) (5 mM EGCG + B/Lee virus, 5 minute, first experiment, dilution factor 10^6, wells 1-10): − and +
CPE test (virus replication in the cell wells) (5 mM EGCG + B/Lee virus, 5 minute, first experiment, dilution factor 10^7, wells 1-10): − and +
CPE test (virus replication in the cell wells) (5 mM EGCG + B/Lee virus, 5 minute, first experiment, dilution factor 10^8, wells 1-10): −
CPE test per cell well (5 mM EGCG + B/Lee virus, 5 minute, second experiment, dilution factor 10^4, wells 1-10): +
CPE test per cell well (5 mM EGCG + B/Lee virus, 5 minute, second experiment, dilution factor 10^5, wells 1-10): − and +
CPE test per cell well (5 mM EGCG + B/Lee virus, 5 minute, second experiment, dilution factor 10^6, wells 1-10): −
CPE test per cell well (5 mM EGCG + B/Lee virus, 5 minute, second experiment, dilution factor 10^7, wells 1-10): −
CPE test per cell well (5 mM EGCG + B/Lee virus, 5 minute, second experiment, dilution factor 10^8, wells 1-10): −
average inactivation efficiency against virus (5 mM EGCG, 1 minute): 52.43%
average inactivation efficiency against virus (5 mM EGCG, 5 minutes): 36.90%
